{
  "source": "patent US20240358727A1",
  "about": "“MICROSCALE THERMOPHORESIS TO EVALUATE CHANNEL LIPID INTERACTIONS AND METHODS OF TREATING NAV CHANNELS RELATED DISEASES” (Northeastern University, priority 2023, published 2024)",
  "target": "T1, GFP-PHPLCδ (PIP2 biosensor) (Homo sapiens, UniProt P51178)",
  "T1 construct": "the pleckstrin homology domain of phospholipase C delta (GFP-PHPLCδ), a PIP2 biosensor; expressed in transfected cells; host or cells: cell lysate",
  "T1 sequence (P51178 21-130 limits assumed)": "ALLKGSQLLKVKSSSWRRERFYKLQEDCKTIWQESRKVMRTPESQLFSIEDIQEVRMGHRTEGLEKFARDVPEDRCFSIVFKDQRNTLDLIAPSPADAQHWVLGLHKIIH",
  "test": "MST binding of diC8-PIP2 to GFP-tagged PHPLCδ1 (positive control)",
  "method": "The method utilizes cell lysates obtained from transfected/infected cells that are lysed and incubated with varying concentrations of a water-soluble analogue of PIP2 commercially available as diC8-PI(4,5)P2, in a 384 well plate. Other phosphoinositides such as diC8PI(4)P of diC8PI(5)P can also be utilized. After a brief incubation (10-30 mins) samples are loaded onto capillary chips purchased from the company Nanotemper. Samples are run on the Nanotemper Monolith instrument. This instrument is advertised to detect green fluorescent protein (GFP) tagged proteins, however we have also used TFP (teal FP) tagged proteins. The instrument provides a short infra-red laser pulse which produces a short thermal gradient. Protein that is interacting with the lipid migrates differently through this thermal gradient and its movement is evaluated by the fluorescence of the GFP/TFP tag on the protein. Based on the concentration of the dic8-phosphoinositide, this resolves into a sigmoidal relationship that delivers an apparent affinity (Kd) value. A test ligand can be added to this assay at a known concentration that is at or close to its Kd for the channel. A shift in the channel's affinity for PIP2 in this assay can help indicate whether this test compound is a good drug candidate for further biological experiments.\nResults. […]",
  "data": [
    {"smiles": "CCCCCCCC(=O)OC[C@H](COP(=O)(O)O[C@@H]1[C@H](O)[C@H](O)[C@@H](OP(=O)(O)O)[C@H](OP(=O)(O)O)[C@H]1O)OC(=O)CCCCCCC", "note": "[diC8-PIP2]", "values": [
      {"measurement": "Kd", "value": 130, "unit": "nM"}
    ]}
  ]
}
